Reference: US20240336679A1, “METHODS FOR THE TREATMENT OF CANCER” (INSTITUT REGIONAL DU CANCER DE MONTPELLIER, priority 2021, published 2024)
Counter-ions that a name gives are not always drawn.

Assays:
[1] = test system: PHGDH, PSAT1 and PSPH mRNA in C2C12 myoblasts cocultured with IB115 liposarcoma cells; test: shRNA assay: RT-qPCR of serine synthesis genes in C2C12 myoblasts cocultured with IB115 cells depleted of human IL-6; type: cell-based, mouse; settings: FIG. 4, myocytes cultured with LPS (IB115) and treated with shIL-6
Description: (§1) Total mRNAs were isolated from myoblasts (C2C12 cells) using TRIzol Reagent (Invitrogen) as previously described (Riscal et al. Mol Cell. 2016 Jun. 16; 62 (6): 890-902). Afterwards, Reverse Transcription of 1 μg mRNA into cDNA was performed using SuperScript III Reverse Transcriptase (Invitrogen), according to the manufacturer protocol. Quantification of the produced cDNA was achieve by Real-time quantitative PCRs on a LightCycler 480 SW 1.5 apparatus (Roche) using SYBR Green mix (Ozyme) plus the oligonucleotides of interest, and the following amplification protocol: 45 cycles of 95° C. for 4 s, 60° C. for 10 s, and 72° C. for 15 s. Analysis of the relative gene expression (mRNA copy number) was realized using Ct values and the 2^−ΔCt method, normalized on at least two different housekeeping genes (TBP, Tubuline, RPL13a, Gus B, β-microglobuline).
Relative quantities of mRNA of MDM2 direct target genes PHGDH, PSAT1 and PSPH were determined by RT qPCR in C2C12 myoblasts cultured alone or in coculture with IB115 cells treated or not for shRNA mediated depletion of human IL-6 (shIL-6). Data were normalized to the corresponding control samples prepared from IB115 cells treated with a control shRNA (mean SD n=3 independent experiments) Statistical significance was evaluated using non parametric Mann Whitney U tests.

[2] = test system: PHGDH, PSAT1 and PSPH mRNA in C2C12 myoblasts cocultured with IB115 liposarcoma cells; test: Anti-IL-6 assay: RT-qPCR of serine synthesis genes in C2C12 myoblasts cocultured with IB115 cells treated with IL-6 signaling inhibitors; type: cell-based, mouse; settings: FIG. 11; for IL-6 dependent enhancement of the serine synthesis way (PHGDH, PSAT, PSPH mRNA): C2C12 myoblasts cocultured with IB115; for PSPH relative mRNA level: co-culture myoblasts with LPS, without inhibitors about 3.1; for PSAT1 relative mRNA level / PHGDH relative mRNA level: co-culture myocytes with LPS; for PSAT1 relative mRNA level: without inhibitors about 2; for PHGDH relative mRNA level: without inhibitors 1.6
Description: as §1
Relative quantities of mRNA of MDM2 direct target genes PHGDH, PSAT1 and PSPH were determined by RT-qPCR in C2C12 cells culture alone or in coculture with IB115 cells treated or not with a blocking anti-IL-6 antibody (Wijdenes et al., Mol Immunol, 28 (1991), p. 1183),i.e., IL-6 receptor inhibitor such as Bazedoxifène, or STAT3 inhibitors such as C188-9 and Stattic (mean+/−SD; n=3 independent experiments). Statistical significance was evaluated using non-parametric Mann-Whitney U tests.

[3] = test system: cancer cells exhibiting recruitment of MDM2 to chromatin (C-MDM2 (+)); test: Cell viability / IC50 measurement (SRB assay) upon SP141 treatment; type: cell-based, human; settings: FIG. 8; as soon as 24 hours after treatment with low concentrations
Description: Cell survival after SP141, IL-6, IL-6 inhibitor and/or serine/glycine deprived diet treatment (IC50) was determined using the Sulforhodamine B assay (SRB assay). Cells were seeded in 96-well plates (Sarsted) in complete DMEM medium as to obtain triplicates for each conditions (5 000 cells/well). After 24 h, serial dilutions of the indicated compounds were added to the cells. […] Fixed SRB was finally dissolved in 10 mM Tris-HCl solution and 560 nm absorbance was read using a PHERAstar FSX plate reader.

[4] = test system: XG-6 cells; test: Growth of IL-6 dependent cell line XG-6; type: cell-based; settings: FIG. 3; RPMI, 2 ng/ml, 3 days; no growth without IL-6
Description: 50 000 XG-6 cells (IL-6 dependent cell line) were seeded in an equal number in four plastic dishes and cultured in suspension in 2 ml of RPMI (Gibco) medium at 37° C./5% CO2 for 3 days. The fourth dishes' conditions are as follows: • XG-6 cells cultured in 2 ml of RPMI in the presence of 2 ng/ml of recombinant IL-6 (obtained with the method illustrated in Wijdenes et al., Mol Immunol, 28 (1991), p. 1183) • XG-6 cells cultured in 2 ml of RPMI, • XG-6 cells cultured in 2 ml of MCF7 cell lines supernatant as previously obtained, • XG-6 cells cultured in 2 ml of IB115 cell lines supernatant as previously obtained.

shIL-6: shRNA to inactivate human IL-6 expression; a sequence may be 5′-GACACTATTTTAATTATTTTTAA-3′ (shRNA, chemistry and expression mode not given here, further chemistry not given here)
relative mRNA level of PSAT ([1]; myocytes alone about 1, with LPS about 1.75): about 1 AU
relative mRNA level of PSPH ([1]; myocytes alone about 1, with LPS about 2.5): about 1 AU
relative mRNA level of PHGDH ([1]; myocytes alone about 1, with LPS about 4.4): about 1.75 AU

O=[N+]([O-])c1ccc2c(c1)S(=O)(=O)C=C2 [Stattic]
IL-6 dependent enhancement of the serine synthesis way (PHGDH, PSAT, PSPH mRNA) ([2]; 10 nM): decreases
PSPH relative mRNA level ([2]; 10 nM): about 1.75 A.U
PSAT1 relative mRNA level ([2]; 10 nM): ~1.5 A.U

COc1ccc(S(=O)(=O)Nc2cc(-c3c(O)ccc4ccccc34)c(O)c3ccccc23)cc1 [C188-9]
IL-6 dependent enhancement of the serine synthesis way (PHGDH, PSAT, PSPH mRNA) ([2]; 10 nM): decreases
PSPH relative mRNA level ([2]; 10 nM): about 1.5 A.U
PHGDH relative mRNA level ([2]; 10 nM): about 0.5 A.U
PSAT1 relative mRNA level ([2]; 10 nM): about 1.3 A.U

COc1ccc2[nH]c3c(-c4cccc5ccccc45)nccc3c2c1 [SP141]
cell viability of cancer cells C-MDM2 (+) [3]: important loss of cell viability

recombinant IL-6: recombinant IL-6 obtained with the method of Wijdenes et al.; positive control for XG-6 growth
Quantity of XG-6 cells [4]: more than 150000 AU

Cc1c(-c2ccc(O)cc2)n(Cc2ccc(OCCN3CCCCCC3)cc2)c2ccc(O)cc12 [BZA, 1-[[4-[2-(Hexahydro-1H-azepin-1-yl)ethoxy]phenyl]methyl]-2-(4-hydroxyphenyl)-3-methyl-1H-indol-5-ol monoacetate (salt)]
PSPH relative mRNA level ([2]; 100 nM): about 1.8 A.U
PHGDH relative mRNA level ([2]; 100 nM): about 0.6 A.U
PSAT1 relative mRNA level ([2]; 100 nM): about 1.3 A.U
